Laboratory results taken from US20100069417A1, “NOVEL PHENYL(4-PHENYLPYRIMIDIN-2-YL)AMINE DERIVATIVES, THEIR PREPARATION, AS MEDICAMENTS, PHARMACEUTICAL COMPOSITIONS AND IN PARTICULAR AS IKK INHIBITORS” (SANOFI-AVENTIS, priority 2007, published 2010).

Question: For `CN(C1CCNCC1)S(=O)(=O)c1ccc(Nc2nccc(-c3ccc(F)cc3)n2)cc1` [Example 4, 4-[4-(4-Fluorophenyl)pyrimidin-2-ylamino]-N-methyl-N-(piperidin-4-yl)benzenesulphonamide], which melting point is on record?
Answer: 115.6 °C

Question: With `CN(Cc1ncc[nH]1)C1CCN(S(=O)(=O)c2ccc(Nc3nccc(-c4ccc(F)cc4)n3)cc2)CC1` [Example 3, [4-(4-Fluorophenyl)pyrimidin-2-yl]-(4-{4-[(1H-imidazol-2-ylmethyl) (methyl)amino]piperidin-1-ylsulphonyl}phenyl) amine] as the compound, how does the melting point read?
Answer: 140 °C

Question: With `CNC1CCN(S(=O)(=O)c2ccc(Nc3nccc(-c4ccc(F)cc4)n3)cc2)CC1` [Example 1, [4-(4-Fluorophenyl)pyrimidin-2-yl][4-(4-(methylamino)piperidin-1-ylsulphonyl)phenyl]amine] as the compound, how does the melting point read?
Answer: 202.9 °C

Question: For `CN(CCS(C)(=O)=O)C1CCN(S(=O)(=O)c2ccc(Nc3nccc(-c4ccc(F)cc4)n3)cc2)CC1` [Example 2, [4-(4-Fluorophenyl)pyrimidin-2-yl]-(4-{4-[(2-(methylsulphonyl)ethyl)(methyl)amino]piperidin-1-ylsulphonyl}phenyl)amine], which melting point is on record?
Answer: 166.5 °C

Question: Which melting point does the source give for `NCCN(C1CCN(Cc2ccccc2)CC1)S(=O)(=O)c1ccc(Nc2nccc(-c3ccc(F)cc3)n2)cc1` [Example 5, N-(2-Aminoethyl)-N-(1-benzylpiperidin-4-yl)-4-[4-(4-fluorophenyl)-pyrimidin-2-ylamino]benzenesulphonamide] here?
Answer: 194.4 °C
